Tests used:
Format in all cases: in vivo
[1] = system: blackgrass (Alopecurus myosuroides); assay: Test A1 preemergence, blackgrass
Source text: (§1) Seeds of plant species selected from, blackgrass (Alopecurus myosuroides), corn (Zea mays), Foxtail, Giant (giant foxtail, Setaria faberi), goosegrass (Eleusine indica), kochia (Bassia scoparia), Oat, Wild (wild oat, Avena fatua), Pigweed, Palmer (palmer amaranth, palmer pigweed, Amaranthus palmeri), ragweed (common ragweed, Ambrosia artemisiifolia), Ryegrass, Italian (Italian ryegrass, Lolium multiflorum), soybean (Glycine max), and wheat (Triticum aestivum) were planted into a blend of loam soil and sand and treated preemergence with a directed soil spray using test chemicals formulated in a non-phytotoxic solvent mixture which included a surfactant. At the same time, plants selected from these crop and weed species and also galium (catchweed bedstraw, Galium aparine) and horseweed (Erigeron canadensis) were planted in pots containing the same blend of loam soil and sand and treated with postemergence applications of test chemicals formulated in the same manner. Plants ranged in height from 2 to 10 cm and were in the one- to two-leaf stage for the postemergence treatment. […] A dash (-) response means no test result.

corn (Zea mays) [2] = assay: Test A1 preemergence, corn
Source text: as §1

[3] = system: Foxtail, Giant (giant foxtail, Setaria faberi); assay: Test A1 preemergence, Foxtail, Giant
Source text: as §1

[4] = system: goosegrass (Eleusine indica); assay: Test A1 preemergence, goosegrass
Source text: as §1

kochia (Bassia scoparia) [5] = assay: Test A1 preemergence, kochia
Source text: as §1

[6] = system: Oat, Wild (wild oat, Avena fatua); assay: Test A1 preemergence, Oat, Wild
Source text: as §1

[7] = system: Pigweed, Palmer (palmer amaranth, palmer pigweed, Amaranthus palmeri); assay: Test A1 preemergence, Pigweed, Palmer
Source text: as §1

[8] = system: ragweed (common ragweed, Ambrosia artemisiifolia); assay: Test A1 preemergence, ragweed
Source text: as §1

[9] = system: Ryegrass, Italian (Italian ryegrass, Lolium multiflorum); assay: Test A1 preemergence, Ryegrass, Italian
Source text: as §1

soybean (Glycine max) [10] = assay: Test A1 preemergence, soybean
Source text: as §1

[11] = system: wheat (Triticum aestivum); assay: Test A1 preemergence, wheat
Source text: as §1

[12] = system: blackgrass (Alopecurus myosuroides); assay: Test A1 postemergence, blackgrass; conditions: Postemergence, 0 to 100 scale (0 no effect, 100 complete control)
Source text: as §1

corn (Zea mays) [13] = assay: Test A1 postemergence, corn; conditions: Postemergence
Source text: as §1

[14] = system: Foxtail, Giant (giant foxtail, Setaria faberi); assay: Test A1 postemergence, Foxtail, Giant; conditions: Postemergence
Source text: as §1

[15] = system: goosegrass (Eleusine indica); assay: Test A1 postemergence, goosegrass; conditions: Postemergence
Source text: as §1

kochia (Bassia scoparia) [16] = assay: Test A1 postemergence, kochia; conditions: Postemergence
Source text: as §1

[17] = system: Oat, Wild (wild oat, Avena fatua); assay: Test A1 postemergence, Oat, Wild; conditions: Postemergence
Source text: as §1

[18] = system: Pigweed, Palmer (palmer amaranth, palmer pigweed, Amaranthus palmeri); assay: Test A1 postemergence, Pigweed, Palmer; conditions: Postemergence
Source text: as §1

[19] = system: ragweed (common ragweed, Ambrosia artemisiifolia); assay: Test A1 postemergence, ragweed; conditions: Postemergence
Source text: as §1

[20] = system: Ryegrass, Italian (Italian ryegrass, Lolium multiflorum); assay: Test A1 postemergence, Ryegrass, Italian; conditions: Postemergence
Source text: as §1

soybean (Glycine max) [21] = assay: Test A1 postemergence, soybean; conditions: Postemergence
Source text: as §1

[22] = system: wheat (Triticum aestivum); assay: Test A1 postemergence, wheat; conditions: Postemergence
Source text: as §1

[23] = system: galium (catchweed bedstraw, Galium aparine); assay: Test A1 postemergence, galium; conditions: Postemergence
Source text: as §1

[24] = system: barnyardgrass (Echinochloa crus-galli); assay: Test B1 flooded paddy test, barnyardgrass; conditions: 250 g ai/ha, Flood, applied to paddy water, 2-leaf stage, visually evaluated after 10 to 14 days
Source text: (§2) A dash (-) response means no test result.

[25] = system: ducksalad (Heteranthera limosa); assay: Test B1 flooded paddy test, ducksalad; conditions: 250 g ai/ha, Flood, applied to paddy water, 2-leaf stage, visually evaluated after 10 to 14 days
Source text: as §2

rice (Oryza sativa) = assay: Test B1 flooded paddy test, rice; conditions: 250 g ai/ha, Flood, applied to paddy water, 2-leaf stage, visually evaluated after 10 to 14 days
Source text: as §2

[26] = 31 g ai/ha, 0 to 100 scale (0 no effect, 100 complete control)
[27] = 125 g ai/ha, 0 to 100 scale, 0 no effect, 100 complete control
[28] = 31 g ai/ha, 0 to 100 scale (0 no effect, 100 complete control), 10 days

SMILES: CCC1ON=C(c2cc(N(C(=O)OCC(C)C)S(=O)(=O)C(F)(F)F)c(C)cc2C)C1CC (centres unmarked) [Compound 345]
- Plant response rating, Blackgrass [1, 26]: 40
- Plant response rating, Blackgrass [1, 27]: 70
- Plant response rating, Corn (corn (Zea mays) [2]; [26]): 10
- Plant response rating, Corn (corn (Zea mays) [2]; [27]): 10
- Plant response rating, Foxtail, Giant [3, 26]: 40
- Plant response rating, Foxtail, Giant [3, 27]: 100
- Plant response rating, Goosegrass [4, 26]: 30
- Plant response rating, Goosegrass [4, 27]: 90
- Plant response rating, Kochia (kochia (Bassia scoparia) [5]; [26]): 20
- Plant response rating, Kochia (kochia (Bassia scoparia) [5]; [27]): 30
- Plant response rating, Oat, Wild [6, 26]: 20
- Plant response rating, Oat, Wild [6, 27]: 10
- Plant response rating, Pigweed, Palmer [7, 26]: 80
- Plant response rating, Pigweed, Palmer [7, 27]: 100
- Plant response rating, Ragweed [8, 26]: 0
- Plant response rating, Ragweed [8, 27]: 0
- Plant response rating, Ryegrass, Italian [9, 26]: 30
- Plant response rating, Ryegrass, Italian [9, 27]: 80
- Plant response rating, Soybean (soybean (Glycine max) [10]; [26]): 0
- Plant response rating, Soybean (soybean (Glycine max) [10]; [27]): 0
- Plant response rating, Wheat [11, 26]: 30
- Plant response rating, Wheat [11, 27]: 10
- Plant response rating, Blackgrass ([12]; 31 g ai/ha, 10 days): 20
- Plant response rating, Blackgrass ([12]; 125 g ai/ha): 40
- Plant response rating, Corn (corn (Zea mays) [13]; [28]): 0
- Plant response rating, Corn (corn (Zea mays) [13]; 125 g ai/ha, 0 to 100 scale): 50
- Plant response rating, Foxtail, Giant [14, 28]: 30
- Plant response rating, Foxtail, Giant ([14]; 125 g ai/ha, 0 to 100 scale): 50
- Plant response rating, Goosegrass [15, 28]: 0
- Plant response rating, Goosegrass ([15]; 125 g ai/ha, 0 to 100 scale): 70
- Plant response rating, Kochia (kochia (Bassia scoparia) [16]; [28]): 30
- Plant response rating, Kochia (kochia (Bassia scoparia) [16]; 125 g ai/ha, 0 to 100 scale): 80
- Plant response rating, Oat, Wild [17, 28]: 20
- Plant response rating, Oat, Wild ([17]; 125 g ai/ha, 0 to 100 scale): 40
- Plant response rating, Pigweed, Palmer [18, 28]: 40
- Plant response rating, Pigweed, Palmer ([18]; 125 g ai/ha, 0 to 100 scale): 60
- Plant response rating, Ragweed [19, 28]: 30
- Plant response rating, Ragweed ([19]; 125 g ai/ha, 0 to 100 scale): 70
- Plant response rating, Ryegrass, Italian [20, 28]: 20
- Plant response rating, Ryegrass, Italian ([20]; 125 g ai/ha, 0 to 100 scale): 60
- Plant response rating, Soybean (soybean (Glycine max) [21]; [28]): 40
- Plant response rating, Soybean (soybean (Glycine max) [21]; 125 g ai/ha, 0 to 100 scale): 50
- Plant response rating, Wheat [22, 28]: 30
- Plant response rating, Wheat ([22]; 125 g ai/ha, 0 to 100 scale): 60
- Plant response rating, Galium [23, 28]: 80
- Plant response rating, Galium ([23]; 125 g ai/ha, 0 to 100 scale): 100
- Plant response rating, Barnyardgrass (0 to 100 scale, 0 is no effect, 100 is complete control) [24]: 95
- Plant response rating, Ducksalad (0 to 100 scale, 0 is no effect, 100 is complete control) [25]: 30
- Plant response rating, Rice (0 to 100 scale, 0 is no effect, 100 is complete control) (rice (Oryza sativa)): 25

SMILES: CCC1ON=C(c2cc(N(C(=O)OCC(C)C)S(=O)(=O)C(F)(F)F)c(C)cc2C)C1CC (centres unmarked) [Compound 348]
- Plant response rating, Blackgrass [1, 26]: 30
- Plant response rating, Blackgrass [1, 27]: 70
- Plant response rating, Corn (corn (Zea mays) [2]; [26]): 0
- Plant response rating, Corn (corn (Zea mays) [2]; [27]): 10
- Plant response rating, Foxtail, Giant [3, 26]: 30
- Plant response rating, Foxtail, Giant [3, 27]: 90
- Plant response rating, Goosegrass [4, 26]: 30
- Plant response rating, Goosegrass [4, 27]: 90
- Plant response rating, Kochia (kochia (Bassia scoparia) [5]; [26]): 0
- Plant response rating, Kochia (kochia (Bassia scoparia) [5]; [27]): 30
- Plant response rating, Oat, Wild [6, 26]: 0
- Plant response rating, Oat, Wild [6, 27]: 10
- Plant response rating, Pigweed, Palmer [7, 26]: 10
- Plant response rating, Pigweed, Palmer [7, 27]: 90
- Plant response rating, Ragweed [8, 26]: 0
- Plant response rating, Ragweed [8, 27]: 10
- Plant response rating, Ryegrass, Italian [9, 26]: 0
- Plant response rating, Ryegrass, Italian [9, 27]: 70
- Plant response rating, Soybean (soybean (Glycine max) [10]; [26]): 30
- Plant response rating, Soybean (soybean (Glycine max) [10]; [27]): 40
- Plant response rating, Wheat [11, 26]: 0
- Plant response rating, Wheat [11, 27]: 30
- Plant response rating, Blackgrass ([12]; 31 g ai/ha, 10 days): 0
- Plant response rating, Blackgrass ([12]; 125 g ai/ha): 90
- Plant response rating, Corn (corn (Zea mays) [13]; [28]): 0
- Plant response rating, Corn (corn (Zea mays) [13]; 125 g ai/ha, 0 to 100 scale): 20
- Plant response rating, Foxtail, Giant [14, 28]: 20
- Plant response rating, Foxtail, Giant ([14]; 125 g ai/ha, 0 to 100 scale): 30
- Plant response rating, Goosegrass [15, 28]: 0
- Plant response rating, Goosegrass ([15]; 125 g ai/ha, 0 to 100 scale): 30
- Plant response rating, Kochia (kochia (Bassia scoparia) [16]; [28]): 20
- Plant response rating, Kochia (kochia (Bassia scoparia) [16]; 125 g ai/ha, 0 to 100 scale): 70
- Plant response rating, Oat, Wild [17, 28]: 0
- Plant response rating, Oat, Wild ([17]; 125 g ai/ha, 0 to 100 scale): 20
- Plant response rating, Pigweed, Palmer [18, 28]: 0
- Plant response rating, Pigweed, Palmer ([18]; 125 g ai/ha, 0 to 100 scale): 70
- Plant response rating, Ragweed [19, 28]: 10
- Plant response rating, Ragweed ([19]; 125 g ai/ha, 0 to 100 scale): 60
- Plant response rating, Ryegrass, Italian [20, 28]: 0
- Plant response rating, Ryegrass, Italian ([20]; 125 g ai/ha, 0 to 100 scale): 40
- Plant response rating, Soybean (soybean (Glycine max) [21]; [28]): 50
- Plant response rating, Soybean (soybean (Glycine max) [21]; 125 g ai/ha, 0 to 100 scale): 90
- Plant response rating, Wheat [22, 28]: 0
- Plant response rating, Wheat ([22]; 125 g ai/ha, 0 to 100 scale): 60
- Plant response rating, Galium [23, 28]: 60
- Plant response rating, Galium ([23]; 125 g ai/ha, 0 to 100 scale): 80
- Plant response rating, Barnyardgrass (0 to 100 scale, 0 is no effect, 100 is complete control) [24]: 95
- Plant response rating, Ducksalad (0 to 100 scale, 0 is no effect, 100 is complete control) [25]: 40
- Plant response rating, Rice (0 to 100 scale, 0 is no effect, 100 is complete control) (rice (Oryza sativa)): 0
